# According to patent US4868195A, “Novel enolamides, pharmaceutical compositions and methods of use thereof for activity as modulators of the arachidonic acid cascade” (Warner-Lambert Company, priority 1988, dated 1989):
# Test system: Human Leukocyte Lipoxygenase
# Experiment: Human Leukocyte Lipoxygenase Assay (LDA-H)
# Format: biochemical
# Details: Concentration 1.00 E -5 M
# Experimental: Human Leukocyte Lipoxygenase Assay (LDA-H)
# Whole blood is collected from normal volunteers and spun in a refrigerated centrifuge for four minutes at 1°-6° C. at 3800 g. The buffy coat is manually separated and washed twice with chilled 0.83% NH4 Cl and centrifuged at 1000 RPM for ten minutes at 4° C. The white cell is suspended in culture media-EMEM supplemented with 6% Agamma human serum, tricine buffer, and neomycin and recentrifuged at 1000 g to yield a pellet containing the leukocytes used for the preparation of the acetone pentane powder.
# The acetone-pentane powder is prepared utilizing a modification of the procedure reported for human platelet lipoxygenase. See Siegel, et al, Arachidonate Metabolism via Lipoxygenase and 12-L-hydroperoxy-5 Eicosatetraenoic Acid Peroxidase Sensitive to Antiinflammatory Drugs, Proc. Natl. Acad. Sci., USA 77: 308, 1980 and D. P. Wallach and V. R. Brown, A Novel Preparation of Human Platlet Lipoxygenase, Biochem. Biophys. Acta. 663: 361, 1981. Buffy coat prepared above is resuspended in 5-7 volumes of cold 0.1M Tris buffer, pH 7.4 containing 0.154M NaCl. The suspension is centrifuged at 13,300 g for ten minutes at 4° C. The resultant pellet is retained, resuspended in five volumes of cold acetone, recentrifuged at 13,300 g and resuspended in five volumes of cold pentane. The pentane suspension is centrifuged for ten minutes at 13,300 g to give a pellet which is dried in the cold under vacuum with periodic pulverization. The dry powder is stable for several weeks when stored at -80° C.
# Enzyme stock solution is prepared in the following manner. About 15 mg of the acetone-pentane powder is suspended in 4 ml of cold tris buffer (0.1M, pH 7.4), allowed to stand for five minutes, and homogenized thoroughly. The homogenate is sonicated three times for 15 seconds each time, diluted to 7 ml with cold tris buffer (0.1M, pH 7.4), and centrifuged at 4° C. for 60 minutes at 13,300 g. the supernatent is retained and diluted to a total of 10 ml with cold tris buffer (0.1M, pH 7.4) to give the stock enzyme solution. Additional dilutions of 2-50 fold are done as necessary to locate optimal enzyme reaction rate in the assay described below.
# Substrate solution is prepared at 100 μM or 1.0 μM concentrations of arachidonic acid or linoleic acid in 0.1M tris buffer, pH 9.0 containing 20% ethanol.
# The enzyme reaction is followed spectrophotometrically by the appearance of a conjugated diene product at 234 nm. The reaction is monitored at 24° C. using a Gilford Model 2600 spectrophotometer. […] The effects of inhibitors on the reaction are compared with control reactions run under indentical conditions. Routinely, each compounds of the present invention is incubated with the enzyme for five minutes prior to addition of substrate to initiate the reaction. Inhibition expressed as IC50 as molar concentration of the compound required to reduce reaction rate to 50% control.
row,% Inhibition (LDAH) [%],Compound
1,0.0,"COc1ccc(CCc2ccc(NC(=O)C(=O)C3=C(O)c4ccccc4S(=O)(=O)C3)cc2)cc1OC [Example 3, N-[4-[2-(3,4-Dimethoxyphenyl)ethyl)phenyl]-4-hydroxy-α-oxo-2H-1-benzothiopyran-3-acetamide, 1,1-dioxide]"

# Same assay, conditions: Concentration 2.50 E -5 M
row,Compound,% Inhibition (LDAH) [%]
1,"COc1ccc(CCc2ccc(NC(=O)C(=O)C3=C(O)c4ccccc4S(=O)(=O)C3)cc2)cc1OC [Example 3, N-[4-[2-(3,4-Dimethoxyphenyl)ethyl)phenyl]-4-hydroxy-α-oxo-2H-1-benzothiopyran-3-acetamide, 1,1-dioxide]",0.0
2,"O=C(Nc1ccc(Cc2ccc(O)c(O)c2)cc1)C1CS(=O)(=O)c2ccccc2C1=O (stereo not shown) [Example 14, N-[4-[(3,4-Dihydroxyphenyl)methyl]phenyl]-3,4-dihydro-4-oxo-2H-1-benzothiopyran-3-carboxamide, 1,1-dioxide]",0.0
3,"O=C(Nc1ccc(CCCCc2ccc(O)c(O)c2)cc1)C1CS(=O)(=O)c2ccccc2C1=O (stereo not shown) [Example 23, N-[4-[4-(3,4-Dihydroxyphenyl)butyl]phenyl]-3,4-dihydro-4-oxo-2H-1-benzothiopyran-3-carboxamide, 1,1-dioxide]",0.0
4,O=C(Nc1ccc(CCc2cc(O)c(O)c(O)c2)cc1)C1=C(O)c2ccccc2S(=O)(=O)C1 [Example 36],0.0

# The remaining lines, values ahead:
row,% Inhibition (LDAH) [%],Compound
1,0.0,"COc1ccc(CCc2ccc(NC(=O)C(=O)C3Oc4cc5ccccc5cc4C3=O)cc2)cc1OC (stereo not drawn) [Example 117, Naptho[2,3-b]furan-2-acetamide, N-[4-[2-(3,4-dimethoxyphenyl)ethyl]phenyl]-2,3-dihydro-α,3-dioxo]"
2,0.0,"COc1ccc(CCc2ccc(NC(=O)C(=O)c3[nH]c4cc(C)c(C)cc4c3O)cc2)cc1OC [Example 175, 1H-Indole-2-acetamide, N-[4-[2-(3,4-dimethoxyphenyl)ethyl]phenyl]-3-hydroxy-5,6-dimethyl-α-oxo]"

# Same assay, conditions: Concentration 7.90 E -9 M
row,% Inhibition (LDAH) [%],Compound
1,50.0,"CCCCCCCCCCc1ccc(NC(=O)C(=O)c2oc3cc(OC)c(OC)cc3c2O)cc1 [Example 119, 2-Benzofuranacetamide, N-[4-decylphenyl]-3-hydroxy-5,6-dimethoxy-α-oxo]"

# Same assay, conditions: Concentration 8.00 E -5 M
row,% Inhibition (LDAH) [%],Compound
1,0.0,"COc1ccc(CCc2ccc(NC(=O)C3CS(=O)(=O)c4ccccc4C3=O)cc2)cc1NC(C)=O (stereo not shown) [Example 50, N-[4-[2-(3-Acetylamino-4-methoxy)ethyl]phenyl]-3,4-dihydro-4-oxo-2H-1-benzothiopyran-3-carboxamide, 1,1-dioxide]"
2,0.0,"COc1ccc(CCc2ccc(NC(=O)C(=O)c3oc4cc(OC)c(OC)cc4c3O)cc2)cc1OC [Example 115, 2-Benzofuranacetamide, N-[4-[2-(3,4-dimethoxyphenyl)ethyl]phenyl]-3-hydroxy-5,6-dimethoxy-α-oxo]"

# Same assay, conditions: acetone-pentane powder enzyme, 234 nm, 24° C., 5 min preincubation; read-out: Concentration (M) for 50.0 % Inhibition, IC (LDAH)
row,Compound,IC50 [M]
1,"O=C(Nc1ccc(CCc2ccc(Cl)cc2)cc1)C(=O)C1=C(O)c2ccccc2SC1 [Example 4, N-[4-[2-(4-chlorophenyl)ethyl]phenyl]-4-hydroxy-α-oxo-2H-1-benzothiopyran-3-acetamide]",4.5e-05
2,"CCCCCCCCCCc1ccc(NC(=O)C(=O)C2=C(O)c3ccccc3S(=O)(=O)C2)cc1 [Example 9, N-(4-Decylphenyl)-4-hydroxy-α-oxo-2H-1-benzothiopyran-3-acetamide, 1,1-dioxide]",7.7e-05
3,"O=C(O)c1ccc(CCc2ccc(NC(=O)C3CS(=O)(=O)c4ccccc4C3=O)cc2)cc1 (stereo not shown) [Example 12, 4-[2-[4-[[(3,4-Dihydro-4-oxo-2H-1-benzothiopyran-3-yl)carbonyl]amino]phenyl]ethyl]benzoic acid, 1,1-dioxide]",3.4e-06
4,"Nc1ccc(CCc2ccc(NC(=O)C3CS(=O)(=O)c4ccccc4C3=O)cc2)cc1 (stereo not shown) [Example 52, N-[4-[2-(4-Aminophenyl)ethyl]phenyl]-3,4-dihydro-4-oxo-2H-1-benzothiopyran-3-carboxamide, 1,1-dioxide]",6e-05
5,CN(C)c1ccc(CCc2ccc(NC(=O)C3CS(=O)(=O)c4ccccc4C3=O)cc2)cc1 (stereo not shown) [Example 55],6.8e-05
6,"N-[4-[3-(3,4-Dihydroxyphenyl)propyl]phenyl]-3,4-dihydro-2H-1-benzothiopyran-3-carboxamide, 1,1-dioxide [Example 22]",1.3e-05

# The remaining lines, values ahead:
row,IC50 [M],Compound
1,1.1e-06,"COc1ccc(CCc2ccc(NC(=O)c3oc4ccc5ccccc5c4c3O)cc2)cc1OC [Example 103, Naptho[2,1-b]furan-2-carboxamide, 1-hydroxy-N-[4-[2-(3,4-dimethoxyphenyl)ethyl]phenyl]]"
2,2.5e-05,"COc1cccc2c(O)c(C(=O)C(=O)Nc3ccc(CCc4ccc(O)c(O)c4)cc3)oc12 [Example 123, 2-Benzofuranacetamide, N-[4-[2-(3,4-dihydroxyphenyl)ethyl]phenyl]-3-hydroxy-7-methoxy-α-oxo]"
3,2.5e-05,"CCCCCCCCCCc1ccc(NC(=O)C(=O)c2sc3ccc(Cl)cc3c2O)cc1 [Example 135, Benzo[b]thiophene-2-acetamide, 5-chloro-N-(4-decylphenyl)-3-hydroxy-α-oxo]"
4,5.7e-07,COc1ccc(CCc2ccc(NC(=O)C(=O)C3=C(O)c4ccccc4OC3)cc2)cc1OC [Example 152]
5,2.7e-05,"O=C(Nc1ccc(CCc2ccc(O)c(O)c2)cc1)C1Oc2c(n(-c3ccccc3)c3ccccc23)C1=O (stereo not shown) [Example 166, 2H-Furo[3,2-b]indole-2-carboxamide, N-[4-[2-(3,4-dihydroxyphenyl)ethyl]phenyl]-3,4-dihydro-3-oxo-4-phenyl]"
6,8e-05,"Cc1cc2[nH]c(C(=O)C(=O)Nc3ccc(CCc4ccc(O)c(O)c4)cc3)c(O)c2cc1C [Example 177, 1H-Indole-2-acetamide, N-[4-[2-(3,4-dihydroxyphenyl)ethyl]phenyl]-3-hydroxy-5,6-dimethyl-α-oxo]"
